In patent US9085806B2, “Methods for treating infection involving identification of a carbapanemase gene” (priority 2007, dated 2015):

Legend:
Assay in all cases: Antimicrobial susceptibility testing, broth microdilution (CLSI)
Assay type in all cases: cell-based
[1] = tested on: E. coli Strain ID 301894; conditions: Escherichia coli; Strain ID 301894 ESCCOL, ESBL positive; Mueller-Hinton broth; read-out: minimum inhibition concentration (MIC)
Source text: (§1) Carbapenem-resistant Klebsiella and E. coli were identified by broth microdilution as described by CLSI from the BD ID/AST microbial bank (1). Wild-type (Ampicillin sensitive) E. coli ATCC 25922 (Strain ID 300960) was used through out the experiments as a negative control. Three strains previously determined to contain KPC-1, KPC-2, and KPC-3 (Strain ID 301916=KPC-1, 301917=KPC-2, 301918=KPC-3) were used as positive controls (4). […] ESBL positive strains were identified using the CLSI recommended broth microdilution assay (2). Prior to any processing or extraction, all strains were streaked out on Trypticase Soy Agar (TSA) plates containing 5% Sheep red blood cells (BD Diagnostic Systems, Sparks, Md.) and grown at 35° C. overnight.
(§2) Antimicrobial susceptibility testing was performed using Mueller-Hinton broth (BD Diagnostic Systems, Sparks, Md.) as described by CLSI (1). Antimicrobial powders were acquired from the following companies; Ampicillin (Amp) and Cefotaxime (CTX) (Sigma Chemical Co., St. Louis, Mo.), Ceftazidime (CAZ) (Eli Lilly, Indianapolis, Ind.), Clavulanic acid (Smith-Kline, King of Prussia, Pa.), Imipenem (IPM) (Merck & Co., Rahway, N.J.).
(§3) The BD ID/AST Microbial Bank was screened for carbapenem-resistant Klebsiella and E. coli with broth microdilution as described by CLSI (2). Klebsiella spp. and E. coli were chosen because they are the primary reservoir species for the plasmid-borne KPC gene.
(§4) ESBL positive strains were identified using the CLSI recommended broth microdilution assay (2). Briefly, this broth microdilution assay has a two-fold dilution scheme between a defined range of the antimicrobial agent. For example, where the defined range of the antimicrobial agent is […], the two-fold dilution between wells is represented by 0.25, 0.5, 1, 2, 4, 8, and 16 μg/ml. To identify ESBL positive strains, growth is evaluated in wells containing the antimicrobial agent of interest at these various two-fold dilutions across the defined range either alone or in combination with Clavulanic acid in order to determine the MIC for the antimicrobial agent alone or in combination with Clavulanic acid. […] A wild-type E. coli Strain ID 300960 was also screened and used as a negative control for all of the real-time assays.

[2] = tested on: E. coli Strain ID 301888; conditions: Escherichia coli; Strain ID 301888 ESCCOL, ESBL positive; Mueller-Hinton broth; read-out: minimum inhibition concentration (MIC)
Source text: as §1, §2, §3, §4

[3] = tested on: Klebsiella pneumoniae Strain ID 300996; conditions: Strain ID 300996 KLEPNEP, ESBL positive, Mueller-Hinton broth, read-out: minimum inhibition concentration (MIC)
Source text: as §1, §2, §3, §4

[4] = tested on: Klebsiella pneumoniae Strain ID 301898; conditions: Strain ID 301898 KLEPNEP, Mueller-Hinton broth, read-out: minimum inhibition concentration (MIC)
Source text: as §1, §2, §3, §4

[5] = tested on: E. coli Strain ID 301905; conditions: Escherichia coli; Strain ID 301905 ESCCOL; Mueller-Hinton broth; read-out: minimum inhibition concentration (MIC)
Source text: as §1, §2, §3, §4

[6] = tested on: Klebsiella pneumoniae Strain ID 303375; conditions: Strain ID 303375 KLEPNEP, Mueller-Hinton broth, read-out: minimum inhibition concentration (MIC)
Source text: as §1, §2, §3, §4

[7] = tested on: E. coli Strain ID 301896; conditions: Escherichia coli; Strain ID 301896 ESCCOL, ESBL positive; Mueller-Hinton broth; read-out: minimum inhibition concentration (MIC)
Source text: as §1, §2, §3, §4

[8] = tested on: Klebsiella pneumoniae Strain ID 301919; conditions: Strain ID 301919 KLEPNEP, ESBL positive, Mueller-Hinton broth, read-out: minimum inhibition concentration (MIC)
Source text: as §1, §2, §3, §4

[9] = tested on: Klebsiella pneumoniae Strain ID 301916 (KPC-1); conditions: Strain ID 301916 KLEPNEP, KPC-1 positive control, Mueller-Hinton broth, read-out: minimum inhibition concentration (MIC)
Source text: as §1, §2, §3, §4

[10] = tested on: E. coli Strain ID 301918 (KPC-3); conditions: Escherichia coli; Strain ID 301918 ESCCOL, KPC-3 positive control; Mueller-Hinton broth; read-out: minimum inhibition concentration (MIC)
Source text: as §1, §2, §3, §4

[11] = tested on: E. coli Strain ID 303369; conditions: Escherichia coli; Strain ID 303369 ESCCOL; Mueller-Hinton broth; read-out: minimum inhibition concentration (MIC)
Source text: as §1, §2, §3, §4

[12] = tested on: Klebsiella oxytoca Strain ID 303990; conditions: Strain ID 303990 KLEOXY, Mueller-Hinton broth, read-out: minimum inhibition concentration (MIC)
Source text: as §1, §2, §3, §4

[13] = tested on: E. coli Strain ID 303364; conditions: Escherichia coli; Strain ID 303364 ESCCOL; Mueller-Hinton broth; read-out: minimum inhibition concentration (MIC)
Source text: as §1, §2, §3, §4

[14] = tested on: E. coli Strain ID 301892; conditions: Escherichia coli; Strain ID 301892 ESCCOL, ESBL positive; Mueller-Hinton broth; read-out: minimum inhibition concentration (MIC)
Source text: as §1, §2, §3, §4

[15] = tested on: E. coli Strain ID 301921; conditions: Escherichia coli; Strain ID 301921 ESCCOL, ESBL positive; Mueller-Hinton broth; read-out: minimum inhibition concentration (MIC)
Source text: as §1, §2, §3, §4

[16] = tested on: Klebsiella pneumoniae Strain ID 301891; conditions: Strain ID 301891 KLEPNEP, Mueller-Hinton broth, read-out: minimum inhibition concentration (MIC)
Source text: as §1, §2, §3, §4

[17] = tested on: Klebsiella pneumoniae Strain ID 301920; conditions: Strain ID 301920 KLEPNEP, ESBL positive, Mueller-Hinton broth, read-out: minimum inhibition concentration (MIC)
Source text: as §1, §2, §3, §4

[18] = tested on: E. coli Strain ID 303365; conditions: Escherichia coli; Strain ID 303365 ESCCOL, ESBL positive; Mueller-Hinton broth; read-out: minimum inhibition concentration (MIC)
Source text: as §1, §2, §3, §4

[19] = tested on: Klebsiella pneumoniae Strain ID 301008; conditions: Strain ID 301008 KLEPNEP, Mueller-Hinton broth, read-out: minimum inhibition concentration (MIC)
Source text: as §1, §2, §3, §4

[20] = tested on: Klebsiella oxytoca Strain ID 300967; conditions: Strain ID 300967 KLEOXY, Mueller-Hinton broth, read-out: minimum inhibition concentration (MIC)
Source text: as §1, §2, §3, §4

[21] = tested on: Klebsiella pneumoniae Strain ID 301899; conditions: Strain ID 301899 KLEPNEP, Mueller-Hinton broth, read-out: minimum inhibition concentration (MIC)
Source text: as §1, §2, §3, §4

[22] = tested on: E. coli ATCC 25922 (Strain ID 300960); conditions: Escherichia coli, ATCC25922; Strain ID 300960 ESCCOL, wild-type negative control; Mueller-Hinton broth; read-out: minimum inhibition concentration (MIC)
Source text: as §1, §2, §3, §4

[23] = tested on: E. coli Strain ID 301922; conditions: Escherichia coli; Strain ID 301922 ESCCOL, ESBL positive; Mueller-Hinton broth; read-out: minimum inhibition concentration (MIC)
Source text: as §1, §2, §3, §4

[24] = tested on: Klebsiella pneumoniae Strain ID 301917 (KPC-2); conditions: Strain ID 301917 KLEPNEP, KPC-2 positive control, ESBL positive, Mueller-Hinton broth, read-out: minimum inhibition concentration (MIC)
Source text: as §1, §2, §3, §4

MIC [1] | MIC [2] | MIC [3] | MIC [4] | MIC [5] | MIC [6] | MIC [7] | MIC [8] | MIC [9] | MIC [10] | MIC [11] | MIC [12] | MIC [13] | MIC [14] | MIC [15] | MIC [16] | MIC [17] | MIC [18] | MIC [19] | MIC [20] | Structure (SMILES) | further results
16 µg/mL | 32 µg/mL | 2 µg/mL | > 64 µg/mL | > 64 µg/mL | 32 µg/mL | 64 µg/mL | 16 µg/mL | > 64 µg/mL | > 64 µg/mL | 32 µg/mL | > 64 µg/mL | 32 µg/mL | 32 µg/mL | > 64 µg/mL | 4 µg/mL | > 64 µg/mL | > 64 µg/mL | ≤ 0.25 µg/mL | > 64 µg/mL | CO/N=C(\C(=O)N[C@@H]1C(=O)N2C(C(=O)O)=C(COC(C)=O)CS[C@H]12)c1csc(N)n1 [CTX, Cefotaxime] | MIC [21]: > 64 µg/mL; MIC [22]: ≤ 0.25 µg/mL; MIC [23]: > 64 µg/mL; MIC [24]: 32 µg/mL
≤ 2 µg/mL | 4 µg/mL | 8 µg/mL | 4 µg/mL | 8 µg/mL | ≤ 2 µg/mL | ≤ 2 µg/mL | ≤ 2 µg/mL | 8 µg/mL | 16 µg/mL | ≤ 2 µg/mL | 16 µg/mL | ≤ 2 µg/mL | 4 µg/mL | ≤ 2 µg/mL | ≤ 2 µg/mL | ≤ 2 µg/mL | ≤ 2 µg/mL | ≤ 2 µg/mL | > 16 µg/mL | C[C@@H](O)[C@H]1C(=O)N2C(C(=O)O)=C(SCCN=CN)C[C@H]12 [IPM, Imipenem] | MIC [21]: 4 µg/mL; MIC [22]: ≤ 0.25 µg/mL; MIC [23]: ≤ 0.25 µg/mL; MIC [24]: 8 µg/mL
> 32 µg/mL | > 32 µg/mL | > 32 µg/mL | > 32 µg/mL | > 32 µg/mL | > 32 µg/mL | > 32 µg/mL | > 32 µg/mL | > 32 µg/mL | > 32 µg/mL | > 32 µg/mL | > 32 µg/mL | > 32 µg/mL | > 32 µg/mL | > 32 µg/mL | > 32 µg/mL | > 32 µg/mL | > 32 µg/mL | 16 µg/mL | > 32 µg/mL | CC1(C)S[C@@H]2[C@H](NC(=O)[C@H](N)c3ccccc3)C(=O)N2[C@H]1C(=O)O [Amp, Ampicillin] | MIC [21]: > 32 µg/mL; MIC [22]: ≤ 0.25 µg/mL; MIC [23]: > 32 µg/mL; MIC [24]: > 32 µg/mL

Structure (SMILES) | MIC [1] | MIC [2] | MIC [3] | MIC [4] | MIC [5] | MIC [6] | MIC [7] | MIC [8] | MIC [9] | MIC [10] | MIC [11] | MIC [12] | MIC [13] | MIC [14] | MIC [15] | MIC [16] | MIC [17] | MIC [18] | MIC [19] | MIC [20] | further results
CC(C)(O/N=C(\C(=O)N[C@@H]1C(=O)N2C(C(=O)[O-])=C(C[n+]3ccccc3)CS[C@H]12)c1csc(N)n1)C(=O)O [CAZ, Ceftazidime] | > 128 µg/mL | 64 µg/mL | 4 µg/mL | > 128 µg/mL | 32 µg/mL | 64 µg/mL | > 128 µg/mL | 32 µg/mL | > 128 µg/mL | > 128 µg/mL | 64 µg/mL | 128 µg/mL | 128 µg/mL | 64 µg/mL | 32 µg/mL | 16 µg/mL | 64 µg/mL | > 128 µg/mL | ≤ 0.25 µg/mL | 128 µg/mL | MIC [21]: > 128 µg/mL; MIC [22]: ≤ 0.5 µg/mL; MIC [23]: 16 µg/mL; MIC [24]: 4 µg/mL
